Data: patent US7806924B2 (Cordis Corporation, priority 2004, dated 2010)

How the values were obtained:
[1] = In vivo release kinetics of rapamycin and mycophenolic acid, porcine pharmacokinetics studies
Source text: The topcoat is two hundred micro grams.

[2] = system: human coronary artery smooth muscle cells; assay: Anti-proliferative activity in non-synchronized cultured human coronary artery smooth muscle cells stimulated with two percent fetal bovine serum; type: cell-based; conditions: for effect on the anti-proliferative activity of rapamycin (shift of the rapamycin dose response curve): added to cells treated with rapamycin
Source text: The multiple curves represent various concentrations of mycophenolic acid ranging from zero to one thousand nanomolar concentrations.
FIG. 58 illustrates, in graphical format, the anti-proliferative activity of cladribine in non-synchronized cultured human coronary artery smooth muscle cells stimulated with two percent fetal bovine serum.
The multiple curves represent various concentrations of cladribine ranging from zero to nine hundred nanomolar concentrations.

[3] = system: human smooth muscle cells; assay: Cladribine Example: PDGF-stimulated proliferation, cell count on day six, smooth muscle cells; type: cell-based; conditions: from the IC50 values
Protocol: To assess the ability of cladribine to prevent cell proliferation, human smooth muscle or endothelial cells (Clonetics, Walkersville, Md.) were seeded at a density of 2000 cells/cm^2 (approximately 3600 cells/well) into each well of 12-well plates and cultured with 1.5 ml of growth medium containing five percent fetal calf serum (FCS). After twenty-four hours, the growth medium was changed and fresh medium containing 10 ng/ml platelet-derived growth factor AB (PDGF AB; LIFE Technologies), as well as various concentrations of cladribine (0.001-10,000 nM) were added with triplicate wells. Medium was replaced with fresh cladribine-containing medium after three days. On day six, cells were detached by trypsinization to yield a cell suspension, lightly centrifuged to pellet and then counted manually using a Neubauer hemocytometer system. Cell viability was assessed by trypan blue exclusion.

[4] = In vivo release kinetics of rapamycin and cladribine, porcine pharmacokinetics studies; parameters: species or system Yorkshire pigs; conditions: Bx Velocity stents, FIG. 63 compared to FIG. 62
Source text: (§1) The basecoat is applied to Bx Velocity® stents and implanted into Yorkshire pigs.
as §1

[5] = system: human coronary artery smooth muscle cell proliferation; assay: In vitro cell culture study of coronary artery smooth muscle cell proliferation; type: cell-based
Source text: FIG. 51 is a graph of the inhibition of coronary artery smooth muscle cells by trichostatin A in a cell culture study.

tumor cell lines = conditions: cited from earlier work

CO[C@H]1C[C@@H]2CC[C@@H](C)[C@@](O)(O2)C(=O)C(=O)N2CCCC[C@H]2C(=O)O[C@H]([C@H](C)C[C@@H]2CC[C@@H](O)[C@H](OC)C2)CC(=O)[C@H](C)/C=C(\C)[C@@H](O)[C@@H](OC)C(=O)[C@H](C)C[C@H](C)/C=C/C=C/C=C/1C [Rapamycin, rapamycin]
in vivo release rate from PVDF basecoat with PVDF topcoat ([1]; six hundred micro grams basecoat, two hundred micro grams topcoat): slower release rate than that of mycophenolic acid

Nc1nc(Cl)nc2c1ncn2[C@H]1C[C@H](O)[C@@H](CO)O1 [cladribine, 2-chlorodeoxyadenosine]
inhibition of human coronary artery smooth muscle cell proliferation ([2]; FIG. 58): completely inhibits | effect on the anti-proliferative activity of rapamycin (shift of the rapamycin dose response curve) [2]: potentiate | potency as inhibitor of smooth muscle cells relative to endothelial cells [3]: approximately twice | in vivo elution from EVA/BMA basecoat with BMA topcoat [4]: elutes more rapidly than rapamycin

COc1c(C)c2c(c(O)c1C/C=C(\C)CCC(=O)O)C(=O)OC2 [mycophenolic acid]
effect on the anti-proliferative activity of rapamycin (shift of the rapamycin dose response curve) [2]: potentiates | in vivo release from EVA/BMA basecoat (with or without BMA topcoat) ([1]; 180 micro grams rapamycin, 180 micro grams mycophenolic acid, 240 micro grams EVA/BMA): elutes more completely over a shorter duration than the rapamycin

CC(/C=C/C(=O)NO)=C\[C@@H](C)C(=O)c1ccc(N(C)C)cc1 [trichostatin A]
inhibition of human coronary artery smooth muscle cell proliferation [5]: completely inhibit | IC50 ([5]; read-out: anti-proliferative IC50): ~6 nM | anti-proliferative IC50's (tumor cell lines): low nM range
